These results are taken from patent US11566007B2, “Ras inhibitors” (Revolution Medicines, Inc., priority 2019, dated 2023).

Where only a bound is given, the exact number is not on record here.

For one assay, the target named is KRAS WT (Homo sapiens (Human), UniProt P01116+P62937). The assay is described as follows: Ras-Raf (BRAF RBD) disruption / FRET / MOA assay, KRAS WT. The assay is classed as biochemical. The following applies: read-out: IC50* KRAS WT FRET data. In a few lines:
(§1)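 TR-FRET read-out: a drop in ratio relative to DMSO wells marks disruption of the Ras:RAF complex, reported as IC50. Compounds (3-fold series, 10 points, top 30 μM final) incubated 3 h at 25° C before Eu-anti-His 10 nM and APC-anti-GST 50 nM, 1.5 h more.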

The next assay addresses NRAS Q61R (Homo sapiens (Human), UniProt P01111+P62937, Q61R). Kind of assay: Ras-Raf (BRAF RBD) disruption / FRET / MOA assay, NRAS Q61R. Type of assay: biochemical. The following applies: NRAS Q61R; Ras-Raf disruption/FRET/MOA assay; read-out: IC50* NRAS Q61R FRET data. Put shortly:
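Compounds were tested as a 10-point 3-fold dilution series from 30 μM final for their ability to drive ternary complex formation between nucleotide-loaded Ras and cyclophilin A, displacing the BRAF RBD. After 3 h at 25° C., anti-His Eu-W1024 (10 nM) and anti-GST allophycocyanin (50 nM) were added for 1.5 h. A TR-FRET ratio decrease versus DMSO gave IC50.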

Assay [1] concerns NCI-H358 cells (K-Ras G12C). The assay is described as follows: Potency assay: pERK in NCI-H358 cells. The assay is classed as cell-based, human. The following applies: Homo sapiens, NCI-H358; H358 KRAS G12C; read-out: pERK EC50. Put shortly: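 Inhibition of cellular pERK after a 4 h treatment, detected by AlphaLISA or In-Cell Western. IC50 from a four-parameter concentration-response fit.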

The next assay deals with K-Ras G13C (Homo sapiens (Human), UniProt P01116+P62937, G13C). Kind of assay: Ras-Raf (BRAF RBD) disruption / FRET / MOA assay, KRAS G13C. Type of assay: biochemical. Particulars: KRAS G13C; Ras-Raf disruption/FRET/MOA assay; read-out: IC50* KRAS G13C FRET data. In a few lines: as §1
A further assay has as its system NCI-H358 (K-Ras G12C). Kind of assay: CellTiter-Glo cell viability assay, NCI-H358. Particulars: Homo sapiens, NCI-H358, 120 h, NCI-H358, 5-day treatment; class symbols; read-out: Additional H358 Cell Viability assay data (K-Ras G12C, IC50). The assay is classed as cell-based, human. In a few lines: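 Compounds were dispensed directly onto K-Ras mutant cells and incubated until day 5, then plates were equilibrated to room temperature for about 30 minutes before CellTiter-Glo luminescence. Signals were normalized as (sample/average DMSO)*100 and fitted by four-parameter logistic fit.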

Sequence of KRAS WT (P01116-2 other isoform, or with tags, fused parts or gaps): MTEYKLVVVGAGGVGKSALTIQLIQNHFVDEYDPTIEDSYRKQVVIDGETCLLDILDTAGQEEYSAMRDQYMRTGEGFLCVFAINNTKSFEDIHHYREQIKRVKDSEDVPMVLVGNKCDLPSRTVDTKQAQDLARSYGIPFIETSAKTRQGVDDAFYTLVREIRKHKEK
Sequence of KRAS WT (P62937 whole entry): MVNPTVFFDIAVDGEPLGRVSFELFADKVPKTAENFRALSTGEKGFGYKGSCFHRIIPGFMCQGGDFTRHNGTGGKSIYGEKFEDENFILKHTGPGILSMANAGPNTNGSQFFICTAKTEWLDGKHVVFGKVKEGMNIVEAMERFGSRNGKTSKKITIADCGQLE
Sequence of K-Ras G13C (P01116-2 other isoform, or with tags, fused parts or gaps G13C): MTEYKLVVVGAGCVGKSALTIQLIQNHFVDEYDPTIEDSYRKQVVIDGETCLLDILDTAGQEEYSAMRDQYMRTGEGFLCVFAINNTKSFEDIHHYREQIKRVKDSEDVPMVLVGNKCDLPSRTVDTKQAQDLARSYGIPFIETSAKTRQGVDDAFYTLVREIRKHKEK
Sequence of K-Ras G13C (P62937 whole entry): as the sequence (P62937 whole entry) above
Sequence of NRAS Q61R (P01111 whole entry Q61R): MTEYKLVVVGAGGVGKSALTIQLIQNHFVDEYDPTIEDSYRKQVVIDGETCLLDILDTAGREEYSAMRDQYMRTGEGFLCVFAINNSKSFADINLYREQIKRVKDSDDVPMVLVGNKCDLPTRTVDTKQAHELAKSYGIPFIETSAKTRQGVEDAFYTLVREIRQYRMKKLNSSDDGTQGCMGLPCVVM
Sequence of NRAS Q61R (P62937 whole entry): as the sequence (P62937 whole entry) above

As a reminder, the IC50 is the concentration that inhibits the measured activity by half. As a reminder, the EC50 is the midpoint of the concentration-response curve. With `CO[C@@H](C)c1ncccc1-c1c2c3cc(ccc3n1CC(F)(F)F)-c1cccc(c1)C[C@H](NC(=O)[C@H](C(C)C)N(C)C(=O)[C@H]1CCN(C(=O)C#CC(C)(C)N(C)C)C1)C(=O)N1CCC[C@H](N1)C(=O)OCC(C)(C)C2` (atropisomer, axis not shown) [Example A727], the IC50 on KRAS WT is 1000 to 10000 nM; at NRAS Q61R it was 1000 to 10000 nM; on K-Ras G13C it was 100 to 1000 nM; in the assay on NCI-H358 (K-Ras G12C) it was less than 10 nM. Also, the EC50 in assay [1] is less than 5000 nM.

With `CCn1c(-c2cccnc2)c2c3cc(ccc31)-c1csc(c1)C[C@H](NC(=O)[C@H](C(C)C)N(C)C(=O)[C@H]1CCN(C(=O)C#CCN3CCOCC3)C1)C(=O)N1CCC[C@H](N1)C(=O)OCC(C)(C)C2` [Example A205], the IC50 on KRAS WT was more than 10000 nM; on NRAS Q61R, more than 10000 nM; on K-Ras G13C, more than 10000 nM; with NCI-H358 (K-Ras G12C) it was 100 to 1000 nM. The EC50 in assay [1] is less than 5000 nM.

In the case of `C=CC(=O)N1CC[C@H](C(=O)N(C)[C@H](C(=O)N[C@H]2C[C@H]3CN(CCO3)c3ccc4c(c3)c(c(-c3cccnc3COC)n4CC)CC(C)(C)COC(=O)[C@@H]3CCCN(N3)C2=O)C(C)C)C1` [Example A240], the IC50 at KRAS WT was more than 10000 nM; at NRAS Q61R, more than 10000 nM; on K-Ras G13C it was more than 10000 nM; with NCI-H358 (K-Ras G12C) it was more than 1000 nM. Besides, in assay [1], the EC50 is less than 5000 nM.

Take `CCn1c(-c2cccnc2[C@H](C)OC)c2c3cc(ccc31)N1CCO[C@@](C)(C[C@H](NC(=O)[C@H](C(C)C)N(C)C(=O)C3(F)CCN(C(=O)C#CC(C)(C)N(C)C)CC3)C(=O)N3CCC[C@H](N3)C(=O)OCC(C)(C)C2)C1` [Example A550]: the IC50 at KRAS WT was 100 to 1000 nM; on NRAS Q61R, 1000 to 10000 nM; at K-Ras G13C, 100 to 1000 nM; in the assay with NCI-H358 (K-Ras G12C) it was less than 10 nM. For the same compound, the EC50 in assay [1] is less than 5000 nM.

For the compound `C=CC(=O)N1CCO[C@H]2CN(C(=O)N(C)[C@H](C(=O)N[C@H]3C[C@H]4CN(CCO4)c4ccc5c(c4)c(c(-c4cccnc4[C@H](C)OC)n5CC)CC(C)(C)COC(=O)[C@@H]4CCCN(N4)C3=O)C(C)C)C[C@H]21` [Example A562], the IC50 at KRAS WT is 1000 to 10000 nM; at NRAS Q61R, more than 10000 nM; on K-Ras G13C it was 100 to 1000 nM; in the assay on NCI-H358 (K-Ras G12C), 100 to 1000 nM. Besides, the EC50 in assay [1] is less than 5000 nM.
